Data published in patent publication US20050096327A1, “Novel norepinephrine reuptake inhibitors for the treatment of central nervous system disorders” (priority 2003, published 2005).
Structures can show the parent of a compound that is named as a salt.

Each compound was assayed against T1, human norepinephrine transporter (Homo sapiens, UniProt P23975) (assay: hNET receptor binding ([125I]-RTI-55, membranes of transfected HEK-293 cells)). Conditions: 50 pM [125I]-RTI-55, 90 min room temperature; IC50 converted by Cheng-Prusoff.
T1 construct: host or cells: HEK-293
T1 sequence (P23975 whole entry): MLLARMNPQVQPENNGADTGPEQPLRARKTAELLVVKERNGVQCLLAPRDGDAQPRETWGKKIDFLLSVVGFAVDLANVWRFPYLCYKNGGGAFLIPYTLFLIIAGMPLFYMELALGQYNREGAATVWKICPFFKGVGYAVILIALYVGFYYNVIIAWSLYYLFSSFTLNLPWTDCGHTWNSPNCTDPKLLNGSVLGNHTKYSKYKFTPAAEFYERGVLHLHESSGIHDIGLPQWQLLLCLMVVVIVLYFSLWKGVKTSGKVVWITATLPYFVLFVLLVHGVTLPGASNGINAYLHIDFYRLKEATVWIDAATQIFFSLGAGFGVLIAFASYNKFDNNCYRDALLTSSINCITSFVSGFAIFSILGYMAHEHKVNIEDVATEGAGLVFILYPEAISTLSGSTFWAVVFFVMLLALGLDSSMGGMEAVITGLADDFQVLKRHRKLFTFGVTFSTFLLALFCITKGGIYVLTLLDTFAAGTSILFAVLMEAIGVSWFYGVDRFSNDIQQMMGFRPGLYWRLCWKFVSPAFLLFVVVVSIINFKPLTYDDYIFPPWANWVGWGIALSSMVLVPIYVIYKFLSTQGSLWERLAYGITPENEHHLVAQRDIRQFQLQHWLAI
Procedure: Cell pastes of HEK-293 cells transfected with the human norepinephrine transporter were supplied by the Pfizer Ann Arbor Protein Expression and Production group. Pellets were resuspended in 400 to 700 ml of Krebs-HEPES assay buffer (25 mM HEPES, 122 mM NaCl, 3 mM KCl, 1.2 mM MgSO4, 1.3 mM CaCl2, and 11 mM glucose, pH 7.4) with a Polytron homogenizer at setting 7 for 30 sec. Aliquots of membranes (5 mg/ml protein) were stored in liquid nitrogen until used.
The binding assay was set up in Beckman deep-well polypropylene plates with a total volume of 250 μl containing: drug (10^−5M to 10^−12M), cell membranes, and 50 pM [^125I]-RTI-55 (Perkin Elmer, NEX-272; specific activity 2200 Ci/mmol). The reaction was incubated by gentle agitation for 90 min at room temperature and was terminated by filtration through Whatman GF/C filter plates using a Brandel 96-well plate harvester. Scintillation fluid (100 μl) was added to each well, and bound [^125I]-RTI-55 was determined using a Wallac Trilux Beta Plate Counter. Test compounds were run in duplicate, and specific binding was defined as the difference between binding in the presence and absence of 10 μM desipramine.
Excel and GraphPad Prism software were used for data calculation and analysis. IC50 values were converted to Ki values using the Cheng-Prusoff equation. The Ki values for the hNET are reported below in Table 1.

Row | Compound | Ki [nM]
1 | 2-Piperazin-1-yl-4-s-tolyl-quinazoline hydrochloride [Example 53] | 10.5
2 | 4-(2,4-Difluoro-phenyl)-2-piperazin-1-yl)-quinazoline hydrochloride [Example 38] | 2
3 | c1ccc(-c2nc(N3CC4CC3CN4)nc3ccccc23)cc1 (centres unmarked) [Example 10, 2-(2,5-Diaza-bicyclo[2.2.1]hept-2-yl)-4-phenyl-quinazoline hydrochloride] | 3.4
4 | c1ccc(-c2nc(N[C@H]3CCNC3)nc3ccccc23)cc1 [Example 17, (S)-(−)-3-(4-Phenyl-quinazolin-2-yl)-aminopyrrolidine hydrochloride] | 45
5 | Fc1ccccc1-c1nc(N2CC3CCCC(C2)N3)nc2ccccc12 [Example 33, 2-(3,9-Diaza-bicyclo[3.3.1]non-3-yl)-4-(2-fluoro-phenyl-quinazoline hydrochloride] | 19
6 | c1ccc(-c2nc(N3C4CCCC3CNC4)nc3ccccc23)cc1 [Example 55, 2-(3,9-Diaza-bicyclo[3.3.1]non-9-yl)-4-phenyl-quinazoline] | 11
7 | Fc1cccc(F)c1-c1nc(N[C@H]2CCNC2)nc2ccccc12 [Example 58] | 8
8 | Fc1ccc2nc(C3CCNCC3)nc(-c3ccccc3F)c2c1 [Example 64, 6-Fluoro-4-(2-fluoro-phenyl)-2-piperidin-4-yl-quinazoline] | 17.7
9 | Fc1ccc2c(-c3ccccc3F)nc(C3CCNCC3)nc2c1 [Example 65, 7-Fluoro-4-(2-fluoro-phenyl)-2-piperidin-4-yl-quinazoline] | 3.3
10 | Fc1cccc(-c2nc(C3CCNCC3)nc3ccccc23)c1 [Example 66, 4-(3-Fluoro-phenyl)-2-piperidin-4-yl-quinazoline] | 5.5
11 | CN1CCC(c2nc(-c3cccc(F)c3)c3ccccc3n2)CC1 [Example 67, 4-(3-Fluoro-phenyl)-2-(1-methyl-piperidin-4-yl)-quinazoline] | 53.5
12 | Fc1ccc(-c2nc(C3CCNCC3)nc3ccccc23)cc1 [Example 68, 4-(4-Fluoro-phenyl)-2-piperidin-4-yl-quinazoline] | 40.6
13 | CN1CCC(c2nc(-c3c(F)cccc3F)c3ccccc3n2)CC1 [Example 69, 4-(2,6-Difluoro-phenyl)-2-(1-methyl-piperidin-4-yl)-quinazoline] | 37.9
14 | Fc1cccc(F)c1-c1nc(C2CCNCC2)nc2ccccc12 [Example 70, 4-(2,6-Difluoro-phenyl)-2-piperidin-4-yl-quinazoline] | 2.9
15 | Fc1cccc(-c2nc(C3CCNCC3)nc3ccccc23)c1F [Example 71, 4-(2,3-Difluoro-phenyl)-2-piperidin-4-yl-quinazoline] | 3
16 | Fc1ccc(-c2nc(C3CCNCC3)nc3ccccc23)c(F)c1 [Example 72, 4-(2,4-Difluoro-phenyl)-2-piperidin-4-yl-quinazoline] | 17.7
17 | Fc1ccc(F)c(-c2nc(C3CCNCC3)nc3ccccc23)c1F [Example 73, 2-Piperidin-4-yl-4-(2,3,6-trifluoro-phenyl)-quinazoline] | 15.9
18 | CN1CCC(c2nc(-c3c(F)cccc3Cl)c3ccccc3n2)CC1 [Example 74, 4-(2-Chloro-6-fluoro-phenyl)-2-(1-methyl-piperidin-4-yl)-quinazoline] | 22.9
19 | Fc1cccc(Cl)c1-c1nc(C2CCNCC2)nc2ccccc12 [Example 75, 4-(2-Chloro-6-fluoro-phenyl)-2-piperidin-4-yl-quinazoline] | 5.9
20 | c1ccc(-c2nc(N3CC4CC3CN4)nc3ccccc23)cc1 (centres unmarked) [Example 80, 2-(2,5-Diaza-bicyclo[2.2.1]hept-2-yl)-4-phenyl-quinazoline] | 9.5
21 | c1ccc(-c2nc(N3CC4CNCC4C3)nc3ccccc23)cc1 (centres unmarked) [Example 81, 2-(Hexahydro-pyrrolo[3,4-c]pyrrol-2-yl)-4-phenyl-quinazoline] | 61

Continued, values first:

Row | Ki [nM] | Compound
22 | 4.8 | c1ccc(-c2nc(N3CCNCC3)nc3ccccc23)cc1 [Example 3, 4-Phenyl-2-piperazin-1-yl-quinazoline]
23 | 89.2 | NCCNc1nc(-c2ccccc2)c2ccccc2n1 [Example 13, N^1-(4-Phenyl-quinazolin-2-yl)-ethane-1,2-diamine hydrochloride]
24 | 26.7 | CN1CCN(c2nc(-c3ccccc3Cl)c3ccccc3n2)CC1 [Example 19, 4-(2-Chloro-phenyl)-2-(4-methyl-piperazin-1-yl)-quinazoline]
25 | 4.8 | Clc1ccccc1-c1nc(N2CCNCC2)nc2ccccc12 [Example 22, 4-(2-Chloro-phenyl)-2-piperazin-1-yl-quinazoline hydrochloride]
26 | 29.5 | COc1ccccc1-c1nc(N2CCNCC2)nc2ccccc12 [Example 23, 4-(2-Methoxy-phenyl)-2-piperazin-1-yl-quinazoline hydrochloride]
27 | 93.4 | c1ccc(Cc2nc(N3CCNCC3)nc3ccccc23)cc1 [Example 28, 4-Benzyl-2-piperazin-1-yl-quinazoline hydrochloride]
28 | 4.8 | Fc1cccc(F)c1-c1nc(N2CCNCC2)nc2ccccc12 [Example 29, 4-(2,6-Difluoro-phenyl)-2-piperazin-4-yl-quinazoline hydrochloride]
29 | 34.5 | C[C@@H]1CN(c2nc(-c3ccccc3)c3ccccc3n2)CCN1 [Example 31, (R)-(+)-2-(3-Methyl-piperazin-1-yl)-4-phenyl-quinazoline]
30 | 19.3 | CN[C@H]1CCN(c2nc(-c3ccccc3F)c3ccccc3n2)C1 [Example 35, (S)-(+)-1-[4-(2-Fluoro-phenyl)-quinazolin-2-yl]-pyrrolidin-3-yl}-methyl-amine hydrochloride]
31 | 4 | Fc1ccccc1-c1nc(C2CCNCC2)nc2ccccc12 [Example 41, 4-(2-Fluoro-phenyl)-2-(piperidin-4-yl)-quinazoline hydrochloride]
32 | 13.3 | c1ccc(-c2nc(C3CCNCC3)nc3ccccc23)cc1 [Example 42, 4-Phenyl-2-piperidin-4-yl-quinazoline hydrochloride]
33 | 29.2 | CN1CCC(c2nc(-c3ccccc3F)c3ccccc3n2)CC1 [Example 43, 4-(2-Fluoro-phenyl)-2-(1-methyl-piperidin-4-yl)-quinazoline]
34 | 62.5 | CN1CCC(c2nc(-c3ccccc3Cl)c3ccccc3n2)CC1 [Example 44, 4-(2-Chloro-phenyl)-2-(1-methyl-piperidin-4-yl)-quinazoline]
35 | 8.7 | Clc1ccccc1-c1nc(C2CCNCC2)nc2ccccc12 [Example 45, 4-(2-Chloro-phenyl)-2-piperidin-4-yl-quinazoline hydrochloride]
36 | 60.3 | COc1ccccc1-c1nc(C2CCNCC2)nc2ccccc12 [Example 46, 4-(2-Methoxy-phenyl)-2-piperidin-4-yl-quinazoline hydrochloride]
37 | 4.1 | Fc1cccc(-c2nc(N3CCNCC3)nc3ccccc23)c1 [Example 60, 4-(3-Fluoro-phenyl)-2-piperazin-1-yl-quinazoline]
38 | 6.9 | Fc1ccc(-c2nc(N3CCNCC3)nc3ccccc23)c(Cl)c1 [Example 61, 4-(2-Chloro-4-fluoro-phenyl)-2-piperazin-1-yl-quinazoline]
39 | 17.3 | Clc1ccc(-c2nc(N3CCNCC3)nc3ccccc23)cc1 [Example 62, 4-(4-Chloro-phenyl)-2-piperazin-1-yl-quinazoline]
40 | 17.6 | Clc1cccc(Cl)c1-c1nc(N2CCNCC2)nc2ccccc12 [Example 63, 4-(2,6-Dichloro-phenyl)-2-piperazin-1-yl-quinazoline]
41 | 44.7 | Cc1ccccc1-c1nc(C2CCNCC2)nc2ccccc12 [Example 76, 2-Piperidin-4-yl-4-o-tolyl-quinazoline]
42 | 22.8 | Fc1ccccc1-c1nc(C2CCCNC2)nc2ccccc12 (centres unmarked) [Example 77, 4-(2-Fluoro-phenyl)-2-piperidin-3-yl-quinazoline]
43 | 19.8 | Cc1ccccc1-c1nc(C2CCCNC2)nc2ccccc12 (centres unmarked) [Example 78, 2-Piperidin-3-yl-4-o-tolyl-quinazoline]
44 | 63.4 | Fc1ccccc1-c1nc(C2(c3ccccc3)CCNCC2)nc2ccccc12 [Example 79, 4-(2-Fluoro-phenyl)-2-(4-phenyl-piperidin-4-yl)-quinazoline]
